Laboratory results taken from patent publication US8518876B2, “Composition for long-acting peptide analogs” (Pharmaln Corporation, priority 2007, dated 2013).
Where a SMILES comes first, the peptide text is derived from it. Bridges are numbered along the chain shown (N, C = ends). The star is where a group is joined. Lauroyl = CCCCCCCCCCCC(=O)*

Test: Binding of C12TerA to hydrophobic polymeric carrier (Scatchard plot, bound/free by HPLC)
Settings: carrier 2.5 mg/tube, PBS, incubated overnight; estimated, plot not completely linear
Text: FIG. 17: This figure is a Scatchard plot showing the binding of C12TerA to polymeric carrier containing a hydrophobic group disclosed in U.S. patent application Ser. No. 11/613,183, which is hereby incorporated by reference. The carrier also referred to as PGC-HC18 or 20PLPEG555-C18 is made up of polylysine of 15-30 kDa where 55% of the amino group is covalently modified to contain 5 kDa methoxypolyethylene glycol attached by through succinate linker and the remaining 45% of the amino group is amide bonded to stearic acid carboxyl group all disclosed in U.S. patent application Ser. No. 11/613,183. […] The filtrate containing […] C12TerA was quantified by HPLC. […] It should be noted that some C12TerA can form micelle and may be counted as bound due to the analytical techniques used.
FIG. 17 is a Scatchard plot showing the binding of C12TerA to polymeric carrier containing a hydrophobic group disclosed in U.S. patent application Ser. No. 11/613,183, which is hereby incorporated by reference. […] The filtrate containing […] C12TerA was quantified by HPLC. […] It should be noted that some C12TerA can form micelle and may be counted as bound due to the analytical techniques used.
The amount of C12TerA capable of being bound to a carrier was determined by varying the amount of the analog in the presence of 10 mg/ml hydrophobic group containing carrier PGC-HC18 or 20PLPEG555-C18. […]

Kd: 1000 to 5000 nM
SMILES: CCCCCCCCCCCC(=O)NCC(=O)NCC(=O)NCC(=O)N[C@H]1CSSC[C@@H](C(=O)N2CCC[C@H]2C(=O)N[C@@H](CCCCN)C(=O)NCC(N)=O)NC(=O)[C@H](CC(N)=O)NC(=O)[C@H](CCC(N)=O)NC(=O)[C@H](Cc2ccccc2)NC(=O)[C@H](Cc2ccc(O)cc2)NC1=O [C12TerA, CH3(CH2)10CO-Gly-Gly-Gly-Cys-Tyr-Phe-Gln-Asn-Cys-Pro-Lys-Gly-NH2] (Lauroyl-GGGCYFQNCPKG-NH2; disulfide 4-9)
